The text below walks through data of patent publication US20240415819A1, “MACROCYCLIC COMPOUNDS AS PROTEASOME SUBUNIT BETA TYPE-5 INHIBITORS” (Lead Discovery Center GmbH, priority 2021, published 2024).

Experiment [1] deals with T1, β5 subunit of the human constitutive proteasome (CPS) (Homo sapiens, UniProt P28074).
T1 construct: purchased Boston Biochem E-360
Nature of the experiment: β5 inhibition assay, human constitutive proteasome (Suc-LLVY-AMC). The format is biochemical. Particulars: IC50 class, Suc-LLVY-AMC substrate. On the procedure: The enzymatic activity of the β5 subunit of the human constitutive proteasome (CPS) is analyzed. In another assay, which differs from the assay of the human constitutive proteasome only in using the human immunoproteasome (IPS) the enzymatic activity of the β5 subunit of the human immunoproteasome (IPS) is analyzed. […] Inhibition is indicated as IC50 [nM] (“-”=not measured).

Experiment [2] concerns the target T2, β5 subunit of the human immunoproteasome (IPS) (Homo sapiens, UniProt P28062).
T2 construct: purchased Boston Biochem E-370
Nature of the experiment: β5 inhibition assay, human immunoproteasome (Suc-LLVY-AMC). In kind it is biochemical. To be noted: IC50 class, Suc-LLVY-AMC substrate. In a few lines: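 Human immunoproteasome (1 nM final) was preincubated 10 min at RT with compound in 100 mM HEPES pH 7.5, 50 mM NaCl, 0.02% SDS, 1 mM DTT. Suc-LLVY-AMC (22.6 μM final) was then added for 4 h at RT in the dark. After stopping with 1 μM bortezomib, AMC fluorescence was read (ex 355/em 460 nm).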

Experiment [3] has as its system A549 (human lung carcinoma cell line). Nature of the experiment: Glo assay of A549 cells (Table 3; ProteasomeGlo plating scheme). The format is cell-based. To be noted: Homo sapiens; A549 cells; read-out: PGLo A549. In a few lines:
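Luminescent read-out of cellular chymotrypsin-like proteasome activity: cells exposed to compound 105 min at 37° C., 5% CO2, then given Suc-LLVY-Glo reagent, shaken 2-5 min and kept dark 10-15 min before reading. Values are IC50 [nM].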

Experiment [4] deals with Hs 746T (human gastric carcinoma cell line). Briefly: 48 hr CTG viability assay, Hs 746T. In kind it is cell-based. Particulars: Hs746T, 48 hr CTG, read-out: Hs 746T IC50. In a few lines:
(§1)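 Growth inhibition by compound over 48 h; IC50 (nM) derived from duplicate CellTiter-Glo luminescence readings across 0.0015–10 uM.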

Experiment [5] concerns MM1 S (B lymphoblast cell line). Nature of the experiment: 48 hr CTG viability assay, MM1S. In kind it is cell-based. To be noted: Homo sapiens, 48 hr CTG, read-out: MM1S IC50. In a few lines: as §1
The test system of experiment [6] is RPMI 8226 (B lymphocyte cell line, multiple myeloma). Briefly: 48 hr CTG viability assay, RPMI 8226. Particulars: Homo sapiens, RPMI-8226; 48 hr CTG; read-out: RPMI-8226 IC50. In kind it is cell-based. The essentials: as §1

For `Cc1ccc2cc1CNC(=O)[C@H](CCc1ccccc1)NC(=O)[C@@H](NC(=O)C1CC3CCC(C1)N3C)CC(=O)N1CCCC(CCO2)C1` (stereo partly drawn) [Compound 713, 8-methyl-N-((9S,12S)-5^4-methyl-8,11,14-trioxo-9-phenethyl-4-oxa-7,10-diaza-1(3,1)-piperidina-5(1,3)-benzenacyclotetradecaphane-12-yl)-8-azabicyclo[3.2.1]octane-3-carboxamide], the IC50 in experiment [1] was under 100 nM; in experiment [2] it was under 100 nM; in experiment [3], under 100 nM; in experiment [4], 100 to 500 nM; in experiment [5], under 100 nM; in experiment [6], under 100 nM.
For `Cc1ccc2cc1CNC(=O)[C@H](CCc1ccccc1)NC(=O)[C@@H](NC(=O)CC1COC1)CC(=O)N1CCCC(CCO2)C1` (stereo partly drawn) [Compound 635, N-((9S,12S)-5^4-methyl-8,11,14-trioxo-9-phenethyl-4-oxa-7,10-diaza-1(3,1)-piperidina-5(1,3)-benzenacyclotetradecaphane-12-yl)-2-(oxetan-3-yl)acetamide], the IC50 in experiment [1], in experiment [2], in experiment [3], in experiment [4], in experiment [5] and in experiment [6] was under 100 nM each time.
As for `Cc1ccc2cc1CNC(=O)[C@H](CCc1ccccc1)NC(=O)[C@@H](NC(=O)C1CC3(CNC3)C1)CC(=O)N1CCCC(CCO2)C1` (stereo partly drawn) [Compound 721, N-((9S,12S)-5^4-methyl-8,11,14-trioxo-9-phenethyl-4-oxa-7,10-diaza-1(3,1)-piperidina-5(1,3)-benzenacyclotetradecaphane-12-yl)-2-azaspiro[3.3]heptane-6-carboxamide], the IC50 in experiment [1] is under 100 nM; in experiment [2], under 100 nM; in experiment [3] it was 100 to 500 nM; in experiment [4] it was under 100 nM; in experiment [5], under 100 nM; in experiment [6], 100 to 500 nM.
`Cc1ccc2cc1CNC(=O)[C@H](CCc1ccccc1)NC(=O)[C@@H](NC(=O)CCNCCC1CC1)CC(=O)N1CCCC(CCO2)C1` (stereo partly drawn) [Compound 679, 3-((2-cyclopropylethyl)amino)-N-((9S,12S)-5^4-methyl-8,11,14-trioxo-9-phenethyl-4-oxa-7,10-diaza-1(3,1)-piperidina-5(1,3)-benzenacyclotetradecaphane-12-yl)propanamide]: the IC50 in experiment [1], in experiment [2], in experiment [3], in experiment [4], in experiment [5] and in experiment [6] was under 100 nM each time.
`COc1ccccc1OCCC(=O)N[C@H]1CC(=O)N2CCCC(CCOc3ccc(C)c(c3)CNC(=O)[C@H](CCc3ccccc3)NC1=O)C2` (stereo partly drawn) [Compound 588, 3-(2-methoxyphenoxy)-N-((9S,12S)-5^4-methyl-8,11,14-trioxo-9-phenethyl-4-oxa-7,10-diaza-1(3,1)-piperidina-5(1,3)-benzenacyclotetradecaphane-12-yl)propanamide]: the IC50 in experiment [1], in experiment [2], in experiment [3], in experiment [4], in experiment [5] and in experiment [6] was under 100 nM in each case.
Take `Cc1ccc2cc1CNC(=O)[C@H](CCc1ccccc1)NC(=O)[C@@H](NC(=O)CCOCCC1CCCC1)CC(=O)N1CCCC(CCO2)C1` (stereo partly drawn) [Compound 623, 3-(2-cyclopentylethoxy)-N-((9S,12S)-5^4-methyl-8,11,14-trioxo-9-phenethyl-4-oxa-7,10-diaza-1(3,1)-piperidina-5(1,3)-benzenacyclotetradecaphane-12-yl)propanamide]: the IC50 in experiment [1], in experiment [2], in experiment [3], in experiment [4], in experiment [5] and in experiment [6] was under 100 nM each time.
Consider `Cc1ccc2cc1CNC(=O)[C@H](CCc1ccccc1)NC(=O)[C@@H](NC(=O)C(C)(C)CO)CCC(=O)NCCCCO2` [Compound 726, 3-hydroxy-2,2-dimethyl-N-((11S,14S)-1^4_ methyl-8,12,15-trioxo-1^4-phenethyl-2-oxa-7,13,16-triaza-1(1,3)-benzenacycloheptadecaphane-11-yl)propanamide], for which the IC50 is under 100 nM in experiment [1]; under 100 nM in experiment [2]; 100 to 500 nM in experiment [3]; 500 to 1000 nM in experiment [4]; 100 to 500 nM in experiment [5]; 100 to 500 nM in experiment [6].
For `Cc1ccc2cc1CNC(=O)[C@H](CCc1ccccc1)NC(=O)[C@@H](NC(=O)CCOC1CC3(CNC3)C1)CC(=O)N1CCCC(CCO2)C1` (stereo partly drawn) [Compound 725, 3-((2-azaspiro[3.3]heptan-6-yl)oxy)-N-((9S,12S)-5^4-methyl-8,11,14-trioxo-9-phenethyl-4-oxa-7,10-diaza-1(3,1)-piperidina-5(1,3)-benzenacyclotetradecaphane-12-yl)propanamide], the IC50 in experiment [1] was under 100 nM; in experiment [2], under 100 nM; in experiment [3], under 100 nM; in experiment [4] it was 100 to 500 nM; in experiment [5] it was 100 to 500 nM; in experiment [6], 100 to 500 nM.
With `Cc1ccc2cc1CNC(=O)[C@H](CCc1ccccc1)NC(=O)[C@@H](NC(=O)CCNC1CC3(CCC3)C1)CC(=O)N1CCCC(CCO2)C1` (stereo partly drawn) [Compound 657, N-((9S,12S)-5^4-methyl-8,11,14-trioxo-9-phenethyl-4-oxa-7,10-diaza-1(3,1)-piperidina-5(1,3)-benzenacyclotetradecaphane-12-yl)-3-(spiro[3.3]heptan-2-ylamino)propanamide], the IC50 in experiment [1], in experiment [2], in experiment [3], in experiment [4], in experiment [5] and in experiment [6] was under 100 nM each time.
For `Cc1ccc2cc1CNC(=O)[C@H](CCc1ccccc1)NC(=O)[C@@H](NC(=O)Cc1ccccc1)CCNC(=O)N1CCCC(CCO2)C1` (stereo partly drawn) [Compound 653, N-((9S,12S)-5^4-methyl-8,11,16-trioxo-9-phenethyl-4-oxa-7,10,15-triaza-1(3,1)-piperidina-5(1,3)-benzenacyclohexadecaphane-12-yl)-2-phenylacetamide], the IC50 in experiment [1], in experiment [2], in experiment [3], in experiment [4], in experiment [5] and in experiment [6] was under 100 nM throughout.
Take `Cc1ccc2cc1CNC(=O)[C@H](CCc1ccncc1)NC(=O)[C@@H](NC(=O)Cc1ccc(N)cc1C)CC(=O)N1CCCC(CCO2)C1` (stereo partly drawn) [Compound 654, 2-(4-amino-2-methylphenyl)-N-((9S,12S)-5^4-methyl-8,11,14-trioxo-9-(2-(pyridin-4-yl)ethyl)-4-oxa-7,10-diaza-1(3,1)-piperidina-5(1,3)-benzenacyclotetradecaphane-12-yl)acetamide]: the IC50 in experiment [1], in experiment [2], in experiment [3], in experiment [4], in experiment [5] and in experiment [6] was under 100 nM each time.
